The text below walks through data of ChEMBL document CHEMBL1201862, “PubChem BioAssay data set” (2004).

Assay [1] has as its target Cyclin-dependent kinase 19 (Homo sapiens, UniProt Q9BWU1). Kind of assay: Navigating the Kinome. Panel member name: CDC2L6. Format: functional.
For a further assay, the target named is T1, Exodeoxyribonuclease V (Escherichia coli (strain K12), UniProt P04993+P07648+P08394).
T1 sequence (P04993 whole entry): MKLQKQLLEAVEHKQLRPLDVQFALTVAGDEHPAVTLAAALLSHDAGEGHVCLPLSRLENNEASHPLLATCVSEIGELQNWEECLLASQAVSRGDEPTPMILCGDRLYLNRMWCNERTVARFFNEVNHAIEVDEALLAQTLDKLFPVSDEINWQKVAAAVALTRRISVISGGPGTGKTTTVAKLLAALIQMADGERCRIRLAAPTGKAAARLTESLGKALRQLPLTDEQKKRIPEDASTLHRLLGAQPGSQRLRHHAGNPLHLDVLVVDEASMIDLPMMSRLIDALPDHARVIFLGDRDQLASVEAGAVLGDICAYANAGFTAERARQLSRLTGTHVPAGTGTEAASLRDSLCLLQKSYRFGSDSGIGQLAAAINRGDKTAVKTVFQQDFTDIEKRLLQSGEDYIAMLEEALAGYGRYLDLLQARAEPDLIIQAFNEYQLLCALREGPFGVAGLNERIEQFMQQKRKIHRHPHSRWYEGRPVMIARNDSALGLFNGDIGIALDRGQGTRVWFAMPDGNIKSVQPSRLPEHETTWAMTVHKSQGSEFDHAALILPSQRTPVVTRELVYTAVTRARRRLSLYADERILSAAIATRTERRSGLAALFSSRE
T1 sequence (P07648 whole entry): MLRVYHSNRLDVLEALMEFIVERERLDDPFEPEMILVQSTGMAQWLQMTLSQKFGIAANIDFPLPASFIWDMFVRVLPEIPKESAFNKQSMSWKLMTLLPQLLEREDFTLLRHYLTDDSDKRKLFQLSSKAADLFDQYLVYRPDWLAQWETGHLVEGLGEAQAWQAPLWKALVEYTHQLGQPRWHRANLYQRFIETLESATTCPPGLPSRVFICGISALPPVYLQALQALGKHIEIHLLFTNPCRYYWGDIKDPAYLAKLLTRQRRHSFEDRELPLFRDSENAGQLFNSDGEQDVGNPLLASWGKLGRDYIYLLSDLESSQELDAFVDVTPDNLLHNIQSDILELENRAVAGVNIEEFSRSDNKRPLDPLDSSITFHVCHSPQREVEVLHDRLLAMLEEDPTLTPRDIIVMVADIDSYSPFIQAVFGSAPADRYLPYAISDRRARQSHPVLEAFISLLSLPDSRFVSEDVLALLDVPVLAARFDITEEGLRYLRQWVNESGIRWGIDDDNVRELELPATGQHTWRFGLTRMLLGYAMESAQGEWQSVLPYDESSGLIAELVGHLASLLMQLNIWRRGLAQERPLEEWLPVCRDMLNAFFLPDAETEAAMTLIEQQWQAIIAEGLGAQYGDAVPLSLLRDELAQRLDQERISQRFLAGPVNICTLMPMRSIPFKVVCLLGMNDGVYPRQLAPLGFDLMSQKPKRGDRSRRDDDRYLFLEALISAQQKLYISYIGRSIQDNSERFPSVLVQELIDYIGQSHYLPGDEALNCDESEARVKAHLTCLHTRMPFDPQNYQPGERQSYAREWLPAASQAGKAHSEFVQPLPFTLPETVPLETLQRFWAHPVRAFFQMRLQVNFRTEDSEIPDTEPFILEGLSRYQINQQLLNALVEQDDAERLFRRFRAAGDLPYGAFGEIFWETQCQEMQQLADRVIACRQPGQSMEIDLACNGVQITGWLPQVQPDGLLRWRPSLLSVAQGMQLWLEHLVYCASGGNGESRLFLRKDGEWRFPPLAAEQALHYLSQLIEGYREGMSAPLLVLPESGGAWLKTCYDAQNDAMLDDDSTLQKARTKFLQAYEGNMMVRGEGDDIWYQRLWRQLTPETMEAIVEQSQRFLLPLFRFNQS
T1 sequence (P08394 whole entry): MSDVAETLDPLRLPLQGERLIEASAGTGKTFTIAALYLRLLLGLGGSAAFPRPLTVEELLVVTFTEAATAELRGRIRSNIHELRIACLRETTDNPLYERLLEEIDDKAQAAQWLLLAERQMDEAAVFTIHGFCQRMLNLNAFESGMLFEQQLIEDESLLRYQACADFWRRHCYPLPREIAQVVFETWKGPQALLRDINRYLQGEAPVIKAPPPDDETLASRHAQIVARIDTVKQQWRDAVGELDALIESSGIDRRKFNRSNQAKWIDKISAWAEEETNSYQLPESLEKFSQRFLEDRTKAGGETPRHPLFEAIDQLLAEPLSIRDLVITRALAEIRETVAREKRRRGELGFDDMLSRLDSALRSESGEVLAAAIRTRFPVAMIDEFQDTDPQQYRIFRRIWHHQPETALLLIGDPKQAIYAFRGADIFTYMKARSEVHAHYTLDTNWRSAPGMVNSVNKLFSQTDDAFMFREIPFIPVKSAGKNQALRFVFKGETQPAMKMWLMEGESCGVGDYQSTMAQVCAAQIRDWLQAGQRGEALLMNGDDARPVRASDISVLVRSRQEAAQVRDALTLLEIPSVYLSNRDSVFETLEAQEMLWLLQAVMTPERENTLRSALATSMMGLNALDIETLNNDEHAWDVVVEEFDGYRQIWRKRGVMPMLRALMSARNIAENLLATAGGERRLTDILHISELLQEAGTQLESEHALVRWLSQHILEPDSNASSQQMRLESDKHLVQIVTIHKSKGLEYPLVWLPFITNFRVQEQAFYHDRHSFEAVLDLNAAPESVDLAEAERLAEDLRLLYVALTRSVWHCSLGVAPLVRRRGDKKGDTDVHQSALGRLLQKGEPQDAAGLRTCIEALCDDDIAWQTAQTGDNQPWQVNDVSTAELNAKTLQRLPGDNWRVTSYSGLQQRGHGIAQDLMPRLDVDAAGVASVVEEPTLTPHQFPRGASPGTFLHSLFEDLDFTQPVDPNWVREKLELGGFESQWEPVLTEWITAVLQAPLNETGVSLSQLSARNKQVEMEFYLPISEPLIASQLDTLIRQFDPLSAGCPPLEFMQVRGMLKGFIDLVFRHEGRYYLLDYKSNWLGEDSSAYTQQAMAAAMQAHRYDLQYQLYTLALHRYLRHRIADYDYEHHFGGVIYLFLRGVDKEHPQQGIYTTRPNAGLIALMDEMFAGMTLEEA
In words: E. coli RecBCD inhibitors, dose response, counter-screen for AddAB inhibitor project, absorbance, V66 E. coli, mutant T4 phage (AID 492957). Format: functional, cell-based, Escherichia coli str. K-12 substr. MG1655.

Calls of active or inactive are those of the source.

Cyclin-dependent kinase 19, sequence (Q9BWU1 whole entry): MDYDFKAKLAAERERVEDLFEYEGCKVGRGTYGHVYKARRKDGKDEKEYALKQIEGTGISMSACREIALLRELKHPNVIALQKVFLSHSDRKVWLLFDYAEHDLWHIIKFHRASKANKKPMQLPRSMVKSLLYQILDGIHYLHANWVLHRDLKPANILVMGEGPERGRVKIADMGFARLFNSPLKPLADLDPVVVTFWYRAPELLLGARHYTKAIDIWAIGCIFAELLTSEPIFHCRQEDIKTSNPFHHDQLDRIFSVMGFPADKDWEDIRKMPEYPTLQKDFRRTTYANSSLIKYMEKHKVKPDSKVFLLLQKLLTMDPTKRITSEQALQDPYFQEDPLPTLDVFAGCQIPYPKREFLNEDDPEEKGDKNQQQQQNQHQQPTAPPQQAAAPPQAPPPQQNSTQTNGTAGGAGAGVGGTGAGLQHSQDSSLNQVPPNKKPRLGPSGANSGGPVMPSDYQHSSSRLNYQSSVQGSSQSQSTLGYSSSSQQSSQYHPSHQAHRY

For the molecule `Cc1ccc(-c2cc(-c3cc(Br)ccc3O)[nH]c(=O)c2C#N)s1`, in assay [1], the Ki was > 100 µM (inactive).

For `CCCC(=O)NC(c1cccs1)c1cc(Cl)c2cccnc2c1O` (configuration not stated), the IC50 on Exodeoxyribonuclease V was > 119 µM (inactive).
